Laboratory results: ChEMBL document CHEMBL2439971, “Design, synthesis and antiproliferative evaluation of fluorenone analogs with DNA topoisomerase I inhibitory properties” (Bioorg Med Chem, 2013)
Activity calls are given as the source filed them. The calls are words filed in the database; no cut-off is given here.

What was measured:
SNB-75 = assay: Cytotoxicity against human SNB75 cells at 10 uM after 48 hrs by sulforhodamine B assay relative to control; format: functional
NCI/ADR-RES = assay: Cytotoxicity against human NCI/ADR-RES cells after 48 hrs by sulforhodamine B assay; format: functional
COLO 205 [1] = assay: Cytotoxicity against human COLO205 cells at 10 uM after 48 hrs by sulforhodamine B assay relative to control; format: functional
A498 = assay: Cytotoxicity against human A498 cells after 48 hrs by sulforhodamine B assay; format: functional; conditions: A498, 48 h
SK-MEL-5 [2] = assay: Cytotoxicity against human SK-MEL-5 cells after 48 hrs by sulforhodamine B assay; format: functional; conditions: SK-MEL-5, 48 h
MDA-MB-468 = assay: Cytotoxicity against human MDA-MB-468 cells at 10 uM after 48 hrs by sulforhodamine B assay relative to control; format: functional
COLO 205 [3] = assay: Cytotoxicity against human COLO205 cells after 48 hrs by sulforhodamine B assay; format: functional; conditions: COLO 205, 48 h
CAKI-1 = assay: Cytotoxicity against human CAKI-1 cells after 48 hrs by sulforhodamine B assay; format: functional; conditions: CAKI-1, 48 h
PC-3 = assay: Cytotoxicity against human PC3 cells after 48 hrs by sulforhodamine B assay; format: functional, cell-based; conditions: PC-3, 48 h
OVCAR-5 = assay: Cytotoxicity against human OVCAR5 cells after 48 hrs by sulforhodamine B assay; format: functional; conditions: OVCAR-5, 48 h
[4] = Cytotoxicity against human Hs 578T cells at 10 uM after 48 hrs by sulforhodamine B assay relative to control; format: functional
Homo sapiens = organism: Homo sapiens; assay: Inhibition of telomerase (unknown origin) at 10 uM TRAP assay
BT-549 [5] = assay: Cytotoxicity against human BT549 cells at 10 uM after 48 hrs by sulforhodamine B assay relative to control; format: functional
UO-31 = assay: Cytotoxicity against human UO31 cells after 48 hrs by sulforhodamine B assay; format: functional; conditions: UO-31, 48 h
SW-620 = assay: Cytotoxicity against human SW620 cells at 10 uM after 48 hrs by sulforhodamine B assay relative to control; format: functional
CCRF-CEM = assay: Cytotoxicity against human CCRF-CEM cells after 48 hrs by sulforhodamine B assay; format: functional
MDA-MB-435 = assay: Cytotoxicity against human MDA-MB-435 cells at 10 uM after 48 hrs by sulforhodamine B assay relative to control; format: functional
SF-268 = assay: Cytotoxicity against human SF268 cells at 10 uM after 48 hrs by sulforhodamine B assay relative to control; format: functional
K562 = assay: Cytotoxicity against human K562 cells at 10 uM after 48 hrs by sulforhodamine B assay relative to control; format: functional
U-251 = assay: Cytotoxicity against human U251 cells at 10 uM after 48 hrs by sulforhodamine B assay relative to control; format: functional
SK-MEL-5 [6] = assay: Cytotoxicity against human SK-MEL-5 cells at 10 uM after 48 hrs by sulforhodamine B assay relative to control; format: functional
SN12C = assay: Cytotoxicity against human SN12C cells after 48 hrs by sulforhodamine B assay; format: functional
SR = assay: Cytotoxicity against human SR cells at 10 uM after 48 hrs by sulforhodamine B assay relative to control; format: functional
OVCAR-4 = assay: Cytotoxicity against human OVCAR4 cells after 48 hrs by sulforhodamine B assay; format: functional; conditions: OVCAR-4, 48 h
NCI-H226 = assay: Cytotoxicity against human NCI-H226 cells after 48 hrs by sulforhodamine B assay; format: functional; conditions: NCI-H226, 48 h
LOX IMVI [7] = assay: Cytotoxicity against human LOXIMVI cells after 48 hrs by sulforhodamine B assay; format: functional
OVCAR-3 [8] = assay: Cytotoxicity against human OVCAR3 cells after 48 hrs by sulforhodamine B assay; format: functional; conditions: OVCAR-3, 48 h
OVCAR-3 [9] = assay: Cytotoxicity against human OVCAR3 cells at 10 uM after 48 hrs by sulforhodamine B assay relative to control; format: functional
786-0 = assay: Cytotoxicity against human 786-0 cells at 10 uM after 48 hrs by sulforhodamine B assay relative to control; format: functional
MCF7 = assay: Cytotoxicity against human MCF7 cells at 10 uM after 48 hrs by sulforhodamine B assay relative to control; format: functional
T47D [10] = assay: Cytotoxicity against human T47D cells at 10 uM after 48 hrs by sulforhodamine B assay relative to control; format: functional
BT-549 [11] = assay: Cytotoxicity against human BT549 cells after 48 hrs by sulforhodamine B assay; format: functional; conditions: BT-549, 48 h
[12] = Cytotoxicity against human EKVX cells at 10 uM after 48 hrs by sulforhodamine B assay relative to control; format: functional
SK-OV-3 = assay: Cytotoxicity against human SKOV3 cells after 48 hrs by sulforhodamine B assay; format: functional; conditions: SK-OV-3, 48 h
HOP-92 = assay: Cytotoxicity against human HOP92 cells after 48 hrs by sulforhodamine B assay; format: functional; conditions: HOP-92, 48 h
LOX IMVI [13] = assay: Cytotoxicity against human LOXIMVI cells at 10 uM after 48 hrs by sulforhodamine B assay relative to control; format: functional
UACC-257 = assay: Cytotoxicity against human UACC257 cells after 48 hrs by sulforhodamine B assay; format: functional; conditions: UACC-257, 48 h
A549 = assay: Cytotoxicity against human A549 cells at 10 uM after 48 hrs by sulforhodamine B assay relative to control; format: functional
T47D [14] = assay: Cytotoxicity against human T47D cells after 48 hrs by sulforhodamine B assay; format: functional
ACHN = assay: Cytotoxicity against human ACHN cells at 10 uM after 48 hrs by sulforhodamine B assay relative to control; format: functional
SF-295 = assay: Cytotoxicity against human SF295 cells at 10 uM after 48 hrs by sulforhodamine B assay relative to control; format: functional
[15] = read-out: LC50 (the source's name)

CCCCNCC(=O)Nc1ccc2c(c1)C(=O)c1cc(NC(=O)CNCCCC)ccc1-2
Activity (SNB-75): 36.53%
GI50 (NCI/ADR-RES): 2.89 µM
TGI (NCI/ADR-RES): 10.9 µM
CC50 (NCI/ADR-RES; [15]): 41.4 µM
Activity (COLO 205 [1]): -86.41%
GI50 (A498): 1.63 µM
TGI (A498): 5.36 µM
CC50 (A498; [15]): 25.1 µM
GI50 (SK-MEL-5 [2]): 1.77 µM
TGI (SK-MEL-5 [2]): 3.18 µM
CC50 (SK-MEL-5 [2]; [15]): 5.71 µM
Activity (MDA-MB-468): -67.44%
GI50 (COLO 205 [3]): 1.27 µM
TGI (COLO 205 [3]): 2.64 µM
CC50 (COLO 205 [3]; [15]): 5.48 µM
GI50 (CAKI-1): 1.79 µM
TGI (CAKI-1): 6.45 µM
CC50 (CAKI-1; [15]): 26.9 µM
GI50 (PC-3): 1.72 µM
IC50 (PC-3): 3.61 µM
LC50 (concentration killing 50% of cells) (PC-3): 13.1 µM
TGI (PC-3): 4.34 µM
GI50 (OVCAR-5): 3.06 µM
TGI (OVCAR-5): 10.6 µM
CC50 (OVCAR-5; [15]): 34.5 µM
Activity [4]: 37.13%
inhibition (Homo sapiens): inactive
Activity (BT-549 [5]): 69.3%
GI50 (UO-31): 2.04 µM
TGI (UO-31): 5.47 µM
CC50 (UO-31; [15]): 25.2 µM
Activity (SW-620): -4.84%
GI50 (CCRF-CEM): 1.6 µM
TGI (CCRF-CEM): 4.02 µM
CC50 (CCRF-CEM; [15]): 10.7 µM
Activity (MDA-MB-435): -58.56%
Activity (SF-268): 38.37%
Activity (K562): -53.98%
Activity (U-251): -57.52%
Activity (SK-MEL-5 [6]): -87.04%
GI50 (SN12C): 3.48 µM
TGI (SN12C): 14.6 µM
CC50 (SN12C; [15]): 41.2 µM
Activity (SR): -56.48%
GI50 (OVCAR-4): 2.06 µM
TGI (OVCAR-4): 5.02 µM
CC50 (OVCAR-4; [15]): 15.9 µM
GI50 (NCI-H226): 10.1 µM
TGI (NCI-H226): 23.3 µM
CC50 (NCI-H226; [15]): 53.6 µM
GI50 (LOX IMVI [7]): 1.05 µM
TGI (LOX IMVI [7]): 2.34 µM
CC50 (LOX IMVI [7]; [15]): 5.18 µM
GI50 (OVCAR-3 [8]): 1.73 µM
TGI (OVCAR-3 [8]): 3.23 µM
CC50 (OVCAR-3 [8]; [15]): 6.05 µM
Activity (OVCAR-3 [9]): -51.72%
Activity (786-0): -73.24%
Activity (MCF7): 10.48%
Activity (T47D [10]): -26.4%
GI50 (BT-549 [11]): 2.05 µM
TGI (BT-549 [11]): 6.05 µM
CC50 (BT-549 [11]; [15]): 24.6 µM
Activity [12]: 58.12%
GI50 (SK-OV-3): 2.55 µM
TGI (SK-OV-3): 8.26 µM
CC50 (SK-OV-3; [15]): 29.5 µM
GI50 (HOP-92): 1.4 µM
TGI (HOP-92): 3.77 µM
CC50 (HOP-92; [15]): 10.6 µM
Activity (LOX IMVI [13]): -78.38%
GI50 (UACC-257): 1.87 µM
TGI (UACC-257): 3.37 µM
CC50 (UACC-257; [15]): 6.08 µM
Activity (A549): -32.16%
GI50 (T47D [14]): 1.56 µM
TGI (T47D [14]): 2.98 µM
CC50 (T47D [14]; [15]): 5.71 µM
Activity (ACHN): 18.19%
Activity (SF-295): -26.11%
